Common to all, as to experiment: relative viability (nuclei count vs DMSO), 5 days (fraction); higher = more cells survive
Compound in test [1]: O=C(O)c1ccc2c(c1)nc(Nc1cccc(Cl)c1)c1ccncc12 [Silmitasertib] + Nc1ncn([C@H]2C[C@H](O)[C@@H](CO)O2)c(=O)n1 [Decitabine] (partner 2 µM)
The method, boiled down: (§1)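 The day after seeding in 1536-well plates, lung cancer cell lines were treated by pin tool with a single drug, or with a fixed anchor-drug dose together with five library-drug doses (not always all listed) in √10 steps. After 5 days, a combined fix-and-stain solution (final 0.05% Triton X-100, 1% formaldehyde, 1 ug/ml Hoechst) was added. Nuclei counted on 4× images gave relative viability as treated counts over vehicle counts, reported as the median of duplicate plates.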

Compound in test [2]: O=C(O)c1ccc2c(c1)nc(Nc1cccc(Cl)c1)c1ccncc12 [Silmitasertib] + COc1cccc2cc(-c3nc([C@H]4CC[C@H](C(=O)O)CC4)n4ncnc(N)c34)[nH]c12 [OSI-027] (partner 0.5 µM)
The procedure, abridged:
as §1

Compound in test [3]: O=C(O)c1ccc2c(c1)nc(Nc1cccc(Cl)c1)c1ccncc12 [Silmitasertib] + CC(C)C[C@H](NC(=O)[C@H](Cc1ccccc1)NC(=O)c1cnccn1)B(O)O [Bortezomib] (partner 0.002 µM)
The procedure, abridged:
as §1

Compound in test [4]: O=C(O)c1ccc2c(c1)nc(Nc1cccc(Cl)c1)c1ccncc12 [Silmitasertib] + Nc1nc2[nH]cc(CCc3ccc(C(=O)N[C@@H](CCC(=O)O)C(=O)O)cc3)c2c(=O)[nH]1 [Pemetrexed] (partner 0.2 µM)
The method, boiled down: as §1

Compound in test [5]: O=C(O)c1ccc2c(c1)nc(Nc1cccc(Cl)c1)c1ccncc12 [Silmitasertib] + C[C@@H](Oc1cc(-c2cnn(C3CCNCC3)c2)cnc1N)c1c(Cl)ccc(F)c1Cl [Crizotinib] (partner 1 µM)
The procedure, abridged: as §1

For seven cell lines, relative viability results are on record in the supplement of paper PMC10307832.

For the cell line ChaGo-K-1, the relative viability amounted to 0.526 in test [1] (first compound 0.04 µM); 0.486 in test [1] (first compound 0.4 µM); 0.463 in test [1] (first compound 1.265 µM); 0.509 in test [1] (first compound 4 µM); 0.602 in test [2] (first compound 0.04 µM); 0.456 in test [2] (first compound 0.4 µM). The relative viability in test [2] (first compound 1.265 µM) is 0.567; in test [2] (first compound 4 µM), 0.353; in test [3] (first compound 0.04 µM) it was 1.32; in test [3] (first compound 0.4 µM) it was 0.934; in test [3] (first compound 1.265 µM), 0.957; in test [3] (first compound 4 µM), 0.537. Also, the relative viability in test [4] (first compound 0.04 µM) turned out to be 0.265; in test [4] (first compound 0.4 µM), 0.24; in test [4] (first compound 1.265 µM), 0.253; in test [4] (first compound 4 µM), 0.275; in test [5] (first compound 0.04 µM) it was 1.35; in test [5] (first compound 0.4 µM), 1. The relative viability turned out to be 1.07 in test [5] (first compound 1.265 µM) and 0.931 in test [5] (first compound 4 µM).

Regarding EKVX, the relative viability in test [1] (first compound 0.04 µM) came out at 0.421; in test [1] (first compound 1.265 µM), 0.374; in test [1] (first compound 4 µM), 0.299; in test [2] (first compound 0.04 µM) it was 0.812; in test [2] (first compound 0.4 µM) it was 0.533; in test [2] (first compound 1.265 µM), 0.605. Moreover, the relative viability in test [2] (first compound 4 µM) amounted to 0.662; in test [3] (first compound 0.04 µM) it was 1.12; in test [3] (first compound 0.4 µM) it was 0.686; in test [3] (first compound 1.265 µM) it was 0.928; in test [3] (first compound 4 µM) it was 0.59; in test [4] (first compound 0.04 µM), 0.394. For the same cell line, the relative viability in test [4] (first compound 1.265 µM) stood at 0.383; in test [4] (first compound 4 µM) it was 0.338; in test [5] (first compound 0.04 µM), 1.15; in test [5] (first compound 0.4 µM), 0.819; in test [5] (first compound 1.265 µM), 0.653; in test [5] (first compound 4 µM), 0.895.

EMC-BAC-2: the relative viability in test [1] (first compound 0.04 µM) was 1.01; in test [1] (first compound 0.4 µM), 0.951; in test [1] (first compound 1.265 µM), 0.93; in test [1] (first compound 4 µM) it was 0.819; in test [2] (first compound 0.04 µM), 0.395; in test [2] (first compound 0.4 µM) it was 0.348. The relative viability in test [2] (first compound 1.265 µM) was 0.276; in test [2] (first compound 4 µM), 0.249; in test [3] (first compound 0.04 µM), 1.05; in test [3] (first compound 0.4 µM), 0.999; in test [3] (first compound 1.265 µM) it was 1.06; in test [3] (first compound 4 µM) it was 0.784. Also, the relative viability in test [4] (first compound 0.04 µM) was found to be 0.455; in test [4] (first compound 0.4 µM), 0.319; in test [4] (first compound 1.265 µM) it was 0.423; in test [4] (first compound 4 µM) it was 0.369; in test [5] (first compound 0.04 µM), 0.847; in test [5] (first compound 0.4 µM), 0.701. The relative viability stood at 0.653 in test [5] (first compound 1.265 µM) and 0.721 in test [5] (first compound 4 µM).

Consider EPLC-272H, for which the relative viability turned out to be 0.475 in test [1] (first compound 0.04 µM); 0.296 in test [1] (first compound 1.265 µM); 0.348 in test [1] (first compound 4 µM); 0.301 in test [2] (first compound 0.04 µM); 0.24 in test [2] (first compound 1.265 µM); 0.178 in test [2] (first compound 4 µM). Besides, the relative viability was 0.906 in test [3] (first compound 0.04 µM); 0.573 in test [3] (first compound 1.265 µM); 0.491 in test [3] (first compound 4 µM); 0.374 in test [4] (first compound 0.04 µM); 0.359 in test [4] (first compound 0.4 µM); 0.385 in test [4] (first compound 1.265 µM). Besides, the relative viability in test [4] (first compound 4 µM) is 0.122; in test [5] (first compound 0.04 µM) it was 0.992; in test [5] (first compound 1.265 µM), 0.469; in test [5] (first compound 4 µM), 0.407.

Consider H3255, for which the relative viability in test [1] (first compound 0.04 µM) was 0.563; in test [1] (first compound 0.4 µM) it was 0.703; in test [1] (first compound 1.265 µM), 0.543; in test [1] (first compound 4 µM), 0.532; in test [2] (first compound 0.04 µM), 0.73; in test [2] (first compound 0.4 µM), 0.591. Further, the relative viability in test [2] (first compound 1.265 µM) worked out at 0.545; in test [2] (first compound 4 µM), 0.613; in test [3] (first compound 0.04 µM) it was 0.937; in test [3] (first compound 0.4 µM), 0.848; in test [3] (first compound 1.265 µM), 0.741; in test [3] (first compound 4 µM), 0.36. In addition, the relative viability came to 0.602 in test [4] (first compound 0.04 µM); 0.5 in test [4] (first compound 0.4 µM); 0.394 in test [4] (first compound 1.265 µM); 0.499 in test [4] (first compound 4 µM); 0.888 in test [5] (first compound 0.04 µM); 0.701 in test [5] (first compound 0.4 µM). The relative viability stood at 0.883 in test [5] (first compound 1.265 µM) and 0.864 in test [5] (first compound 4 µM).

Regarding HARA, the relative viability in test [1] (first compound 0.04 µM) is 0.698; in test [1] (first compound 0.4 µM) it was 0.554; in test [1] (first compound 1.265 µM) it was 0.494; in test [1] (first compound 4 µM), 0.355; in test [2] (first compound 0.04 µM) it was 0.715; in test [2] (first compound 0.4 µM), 0.203. Besides, the relative viability in test [2] (first compound 1.265 µM) stood at 0.432; in test [2] (first compound 4 µM), 0.141; in test [3] (first compound 0.04 µM), 1.12; in test [3] (first compound 0.4 µM), 0.812; in test [3] (first compound 1.265 µM), 0.949; in test [3] (first compound 4 µM), 0.766. The relative viability in test [4] (first compound 0.04 µM) came out at 0.268; in test [4] (first compound 0.4 µM), 0.215; in test [4] (first compound 1.265 µM) it was 0.213; in test [4] (first compound 4 µM) it was 0.235; in test [5] (first compound 0.04 µM) it was 1.1; in test [5] (first compound 0.4 µM), 0.757. The relative viability was 0.621 in test [5] (first compound 1.265 µM) and 0.88 in test [5] (first compound 4 µM).

Take HCC-15: the relative viability in test [1] (first compound 0.04 µM) is 0.703; in test [1] (first compound 0.4 µM), 0.536; in test [1] (first compound 1.265 µM), 0.404; in test [1] (first compound 4 µM) it was 0.292; in test [2] (first compound 0.04 µM), 0.761; in test [2] (first compound 0.4 µM), 0.552. The relative viability in test [2] (first compound 1.265 µM) was 0.437; in test [2] (first compound 4 µM), 0.24; in test [3] (first compound 0.04 µM), 1.02; in test [3] (first compound 0.4 µM) it was 0.655; in test [3] (first compound 1.265 µM), 0.856; in test [3] (first compound 4 µM) it was 0.408. Besides, the relative viability is 0.242 in test [4] (first compound 0.04 µM); 0.229 in test [4] (first compound 0.4 µM); 0.216 in test [4] (first compound 1.265 µM); 0.215 in test [4] (first compound 4 µM); 0.804 in test [5] (first compound 0.04 µM); 0.603 in test [5] (first compound 0.4 µM). For the same cell line, the relative viability in test [5] (first compound 1.265 µM) worked out at 0.71; in test [5] (first compound 4 µM), 0.575.
